In patent US8710098B2, “Group of amino substituted benzoyl derivatives and their preparation and their use” (priority 2008, dated 2014):

These compounds were tested against T1, hA3G degradation mediated by HIV-1 Vif (UniProt P69723+Q9HC16) (assay: Screening experiment for up-regulation activity to hA3G (YFP-fused hA3G co-expressed with HIV-1 Vif, fluorescence)). Settings: YFP fluorescence of cells co-expressing Vif and hA3G-YFP; excitation 485 nm, detection 520 nm; averages of duplicates.
T1 construct: expressed in transfected cells
T1 sequence (P69723 whole entry, the tested form may be a part): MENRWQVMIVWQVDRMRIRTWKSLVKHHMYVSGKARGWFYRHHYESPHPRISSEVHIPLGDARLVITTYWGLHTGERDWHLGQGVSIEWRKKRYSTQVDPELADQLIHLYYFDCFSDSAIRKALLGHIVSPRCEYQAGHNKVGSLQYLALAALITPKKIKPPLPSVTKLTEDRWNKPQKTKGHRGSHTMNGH
T1 sequence (Q9HC16 whole entry, the tested form may be a part): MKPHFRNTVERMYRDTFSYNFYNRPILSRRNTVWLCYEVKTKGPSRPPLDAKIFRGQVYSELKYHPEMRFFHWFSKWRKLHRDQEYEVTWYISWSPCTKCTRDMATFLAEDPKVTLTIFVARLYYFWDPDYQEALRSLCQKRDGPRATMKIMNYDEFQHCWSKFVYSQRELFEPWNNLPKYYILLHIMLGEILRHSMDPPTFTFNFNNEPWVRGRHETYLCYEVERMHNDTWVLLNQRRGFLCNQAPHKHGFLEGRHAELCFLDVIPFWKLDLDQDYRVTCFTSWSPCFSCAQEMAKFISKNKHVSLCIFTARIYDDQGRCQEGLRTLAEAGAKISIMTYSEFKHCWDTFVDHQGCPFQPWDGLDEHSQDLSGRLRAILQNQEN
Type: cell-based, human
From the text: Based on the advances making research on the hA3G degradation mediated by HIV-1 Vif, this invention establishes a high throughput anti-HIV-1 drug screening model using hA3G degradation mediated by HIV-1 Vif as target, to screen small molecule active compounds capable of inhibiting this degradation process. The function principle of this model is that HIV-1 Vif protein and hA3G fused yellow fluorescent protein (YFP) co-expressed in the cells, then the intracellular fluorescence intensity (at […]) decreases owing to the degradation of hA3G caused by Vif and subsequent degradation of YEP fused on hA3G. By means of measuring the change of fluorescent intensity, the influence of the screened compounds on the degradation of hA3G caused by Vif can quantitatively be analyzed. Simultaneously, to differentiate the non-specific inhibitory effect of diverse ubiquitin degradation route in the samples, this invention establishes a recheck model based on the detection of P53 degradation caused by the product of adenovirus early gene, to assure that the positive samples screened out by the proposed model can specifically block the degradation of hA3G caused by Vif.
Screening Experiment for Up-Regulation Activity to hA3G
The cells are picked up and cultured a culture bottle. When the cells grow full of the culture bottle, old culture medium is discarded and the cells are digested with digestion medium. When the cells turn round, the digestion medium is discarded and the culture medium is added in at once, the bottom of the bottle is gently blown with a pipette to make the cells disengage the bottle bottom and disperse into single cell suspension. After counting the cells using blood cell counting chamber, the cell suspension is inoculated into a culture dish for transfection. The medium containing the plasmid to be transfected and the transfection reagents is gently mixed up and incubated at room temperature. The medium is then added into the supernatant of the cell culture and cultured for a certain period of time. The old culture medium is then sucked out, the cells are digested with digestive medium, the digestive medium is subsequently discarded and culture medium is immediately added. The medium is gently blown to disperse the cells into single cell suspension. After counting the cells using blood cell counting chamber, the cells are ready for inoculation.
Samples of compounds[…]Pure tested compounds are dissolved in DMSO, the solution is diluted with equal proportional distilled water. The diluent is used to test the cell systems.
Sample solution of different concentration is added into the supernatant of a cell culture. After the cells are continuously cultured, old culture medium is sucked out and the cells are blown with PBS buffer until the cells completely disengage from the culture bottle.
The fluorescence intensity values of the cell suspension with test compound samples, positive control samples and negative control samples are respectively measured with fluorometer, the excitation wavelength is 485 nm and the detection wavelength 520 nm. Averages of duplicated measurements are taken as the results.
The measured fluorescence intensity values of the negative control samples (blink sample) subtracted from those of test compound samples, the results are taken as YFP fluorescence of different groups. Relative fluorescence intensity=fluorescence intensity of a test sample group/fluorescence intensity of the positive control group×100% Inhibition rate of degradation=(test sample group−negative control group)/(positive control group−negative control group)×100%
For COc1ccc(C(=O)Nc2cc(OC)c(OC)c(OC)c2)cc1NC(=O)CCl [Compound 1, N-(3′,4′,5′-trimethoxyphenyl)-3-(2-chloroacetamido)-4-methoxybenzamide], the “hA3G up-regulation activity (%)” value was 36.3%.
CNc1cc(C(=O)Nc2cc(OC)nc(OC)n2)ccc1O [Compound 3, N-(2′,6′-dimethoxypyrimidinyl-4′-) 3-methylamino-4-hydroxylbenzamide] was tested, and the “hA3G up-regulation activity (%)” value was 20.2%.
In the case of COc1ccc(C(=O)Oc2cc(OC)c(OC)c(OC)c2)cc1N [Compound 4], the “hA3G up-regulation activity (%)” value is reported as 1.6%.
For COc1ccc(C(=O)Sc2cc(OC)c(OC)c(OC)c2)cc1N [Compound 5, S-(3′,4′,5′-trimethoxyphenyl) 3-amino-4-methoxybenzenecarbothioate], the “hA3G up-regulation activity (%)” value was 14.4%.
COc1ccc(C(=O)Cc2cc(OC)c(OC)c(OC)c2)cc1N [Compound 6] was tested, and the “hA3G up-regulation activity (%)” value was 28.7%.
CCC(=O)Nc1cc(C(=O)Sc2cc(OC)c(OC)c(OC)c2)ccc1OC [Compound 9, S-(3′,4′,5′-trimethoxyphenyl) 3-propionamido-4-methoxybenzenecarbothiolate] was tested, and the “hA3G up-regulation activity (%)” value was 46.5%.
For CCC(=O)Nc1cc(C(=O)Cc2cc(OC)c(OC)c(OC)c2)ccc1OC [Compound 10, 1′-(3-propionamido-4-methoxy-benzoyl)methylene-3′,4′,5′-trimethoxybenzene], the “hA3G up-regulation activity (%)” value was 28.9%.
For COc1ccc(C(=O)Nc2cc(OC)c(OC)c(OC)c2)cc1NC(C)=O [Compound 11], the “hA3G up-regulation activity (%)” value was 22.2%.
In the case of COc1ccc(C(=O)Oc2cc(OC)c(OC)c(OC)c2)cc1NC(C)=O [Compound 12], the “hA3G up-regulation activity (%)” value is reported as 31.6%.
In the case of COc1ccc(C(=O)Cc2cc(OC)c(OC)c(OC)c2)cc1NC(C)=O [Compound 13], the “hA3G up-regulation activity (%)” value is reported as 42.1%.
In the case of COc1ccc(C(=O)Nc2cc(OC)c(OC)c(OC)c2)cc1NC(=O)C(C)Cl (centres unmarked) [Compound 14], the “hA3G up-regulation activity (%)” value is reported as 11.2%.
In the case of COc1ccc(C(=O)Sc2cc(OC)c(OC)c(OC)c2)cc1NC(=O)C(C)Cl (centres unmarked) [Compound 15], the “hA3G up-regulation activity (%)” value is reported as 19.4%.
In the case of COc1ccc(C(=O)Cc2cc(OC)c(OC)c(OC)c2)cc1NC(=O)C(C)Cl (centres unmarked) [Compound 16], the “hA3G up-regulation activity (%)” value is reported as 17.3%.
For COc1ccc(C(=O)Nc2cc(OC)c(OC)c(OC)c2)cc1NC(=O)CF [Compound 17], the “hA3G up-regulation activity (%)” value was 31.1%.
For COc1ccc(C(=O)Oc2cc(OC)c(OC)c(OC)c2)cc1NC(=O)CF [Compound 18], the “hA3G up-regulation activity (%)” value was 34.5%.
In the case of COc1ccc(C(=O)Sc2cc(OC)c(OC)c(OC)c2)cc1NC(=O)CF [Compound 19], the “hA3G up-regulation activity (%)” value is reported as 44.3%.
COc1ccc(C(=O)Cc2cc(OC)c(OC)c(OC)c2)cc1NC(=O)CF [Compound 20] was tested, and the “hA3G up-regulation activity (%)” value was 56.0%.
For COc1ccc(C(=O)Sc2cc(OC)c(OC)c(OC)c2)cc1NC(=O)C(C)F (stereo not drawn) [Compound 21, S-(3′,4′,5′-trimethoxyphenyl)-3-(2-fluoropropionamido)-4-methoxybenzenecarbothiolate], the “hA3G up-regulation activity (%)” value was 21.1%.
For COc1ccc(C(=O)Sc2cc(OC)c(OC)c(OC)c2)cc1NC(C)=O [Compound 22], the “hA3G up-regulation activity (%)” value was 24.6%.
COc1ccc(C(=O)Nc2cc(OC)c(OC)c(OC)c2)cc1NC(=O)C(C)F (centres unmarked) [Compound 23] was tested, and the “hA3G up-regulation activity (%)” value was 29.3%.
COc1ccc(C(=O)Oc2cc(OC)c(OC)c(OC)c2)cc1NC(=O)C(C)F (centres unmarked) [Compound 24] was tested, and the “hA3G up-regulation activity (%)” value was 18.6%.
With COc1ccc(C(=O)Cc2cc(OC)c(OC)c(OC)c2)cc1NC(=O)C(C)F (centres unmarked) [Compound 25, 3-(2″-fluoropropionamido)-4-methoxybenzoylmethylene-3′,4′,5′-trimethoxybenzene] the “hA3G up-regulation activity (%)” value was 19.4%.
For COc1ccc(C(=O)Oc2cc(OC)c(OC)c(OC)c2)cc1NC(=O)CCl [Compound 27], the “hA3G up-regulation activity (%)” value was 32.1%.
